Data on ten molecules can be found in ChEMBL document CHEMBL1141621, “Constraining the amide bond in N-sulfonylated dipeptide VLA-4 antagonists” (Bioorg Med Chem Lett, 2008).

Assay [1] deals with Integrin alpha-4 (Homo sapiens) (UniProt P13612). Kind of assay: Displacement of [125I]VCAMIg from VLA4 expressed in Jurkat cells at 100 uM. The class given is cell-based. On the technique in general: In a radioligand displacement assay an active substance lowers the binding of a labelled ligand.
For the next assay, the target named is T1, Integrin alpha-4 (Homo sapiens, UniProt P13612).
T1 sequence (P13612 whole entry): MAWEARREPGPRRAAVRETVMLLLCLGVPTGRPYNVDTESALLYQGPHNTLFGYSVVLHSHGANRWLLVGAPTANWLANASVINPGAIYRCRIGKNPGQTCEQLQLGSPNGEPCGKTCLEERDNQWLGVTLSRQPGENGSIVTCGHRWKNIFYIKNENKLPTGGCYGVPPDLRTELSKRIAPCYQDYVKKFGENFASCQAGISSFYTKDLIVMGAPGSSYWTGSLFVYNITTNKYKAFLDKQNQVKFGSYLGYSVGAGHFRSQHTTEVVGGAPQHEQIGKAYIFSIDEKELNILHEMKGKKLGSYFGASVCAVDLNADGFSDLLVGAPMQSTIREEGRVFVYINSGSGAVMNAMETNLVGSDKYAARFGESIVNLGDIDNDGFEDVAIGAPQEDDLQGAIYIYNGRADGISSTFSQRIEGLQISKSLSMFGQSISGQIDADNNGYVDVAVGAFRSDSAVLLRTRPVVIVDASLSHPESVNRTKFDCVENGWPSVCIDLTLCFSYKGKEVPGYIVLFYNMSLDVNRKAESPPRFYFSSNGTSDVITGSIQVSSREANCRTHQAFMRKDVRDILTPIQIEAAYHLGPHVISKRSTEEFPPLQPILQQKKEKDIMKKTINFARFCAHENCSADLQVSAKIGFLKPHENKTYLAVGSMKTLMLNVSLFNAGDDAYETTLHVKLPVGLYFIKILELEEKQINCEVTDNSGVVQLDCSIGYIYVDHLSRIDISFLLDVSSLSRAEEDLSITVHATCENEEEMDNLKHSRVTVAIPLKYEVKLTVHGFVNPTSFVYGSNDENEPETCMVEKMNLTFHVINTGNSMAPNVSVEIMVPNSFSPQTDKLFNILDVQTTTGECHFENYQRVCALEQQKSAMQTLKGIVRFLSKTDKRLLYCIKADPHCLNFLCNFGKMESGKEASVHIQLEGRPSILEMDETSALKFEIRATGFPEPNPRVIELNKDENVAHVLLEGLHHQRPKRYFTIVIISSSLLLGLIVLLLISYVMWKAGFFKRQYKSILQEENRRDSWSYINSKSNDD
Description: Displacement of [125I]VCAMIg from VLA4 expressed in Jurkat cells. The class given is cell-based.

For orientation: inhibition means the share of the control response that was lost under treatment. Read a high inhibition as strong suppression. Turning to `O=C(O)c1[nH]c(C2CCCN2S(=O)(=O)c2cc(Cl)cc(Cl)c2)nc1Cc1ccc2ccccc2c1` (stereo not given), the inhibition in assay [1] was determined as 30%. Broadly, the IC50 is the concentration at which inhibition is half-maximal. High values mean lower potency, low ones higher potency. `O=C(O)C(Cc1ccccc1)N1C[C@@H]2CCN(S(=O)(=O)c3cc(Cl)cc(Cl)c3)[C@@H]2C1=O` (stereo not given in full): the IC50 at Integrin alpha-4 was found to be 2100 nM. On the same count and under the same terms, in the case of `O=C(O)[C@H](Cc1ccccc1)NC(=O)[C@@H]1CCCN1S(=O)(=O)c1cc(Cl)cc(Cl)c1` it was 1.4 nM; in that of `COc1ccccc1-c1ccc(C[C@H](NC(=O)[C@@H]2CCCN2S(=O)(=O)c2cc(Cl)cc(Cl)c2)C(=O)O)cc1`, 0.64 nM.

As to `O=C(O)c1[nH]c(CN(C2CCCCC2)S(=O)(=O)c2cc(Cl)cc(Cl)c2)nc1-c1ccc(-c2ccccc2)cc1`, in assay [1], the inhibition was found to be 45%. For the molecule `O=C(O)c1nc(CN(C2CCCCC2)S(=O)(=O)c2cc(Cl)cc(Cl)c2)[nH]c1Cc1ccc(-c2ccccc2)cc1`, at Integrin alpha-4, the half-inhibitory concentration (IC50) came to 237 nM.

With `O=C(O)c1[nH]c(C2CCCN2S(=O)(=O)c2cc(Cl)cc(Cl)c2)nc1-c1ccc2ccccc2c1` (stereo not given), in assay [1], the inhibition was determined as 8%. The same measure, in the same setting: with `O=C(O)c1nc(C2CCCN2S(=O)(=O)c2cc(Cl)cc(Cl)c2)sc1-c1ccc2ccccc2c1` (stereo not given) the figure was 19%. `O=C(O)c1[nH]c(CN(C2CCCCC2)S(=O)(=O)c2cc(Cl)cc(Cl)c2)nc1Cc1ccc2ccccc2c1` gave an IC50 on Integrin alpha-4 of 285 nM. On the same count and under the same terms, with `CC(C)C(c1nc(Cc2ccc3ccccc3c2)c(C(=O)O)[nH]1)N(C)S(=O)(=O)c1cc(Cl)cc(Cl)c1` (stereo not given) the figure was 2540 nM.
